Experiment [1] relates to KB. In words: Cytotoxicity against human KB cells. The format is functional. The conditions noted are these: for EC50: Homo sapiens, KB, read-out: ED50 (the source's name).
Experiment [2] concerns P388. Put plainly: In vivo antitumor activity against mouse P388 cells at 0.26 to 4.3 mg/kg. It is filed as functional, organism-based.
For experiment [3], the system named is P388. Put plainly: In vivo antitumor activity against mouse P388 cells at 16 mg/kg relative to control. The format is functional.
The test system of experiment [4] is P388. In words: In vivo antitumor activity against mouse P388 cells at 2.2 mg/kg relative to control. It is filed as functional.

≈ marks a conversion by molar mass, not a printed value. Calls of active or inactive are those of the source. The rule behind the calls is not given here.

Take `C/C=C(\C)C(=O)N[C@@H](c1ccccc1)[C@@H](O)C(=O)O[C@H]1C[C@@]2(O)[C@@H](OC(=O)c3ccccc3)[C@@H]3[C@]4(OC(C)=O)CO[C@@H]4C[C@@H](O)[C@@]3(C)C(=O)[C@H](O)C(=C1C)C2(C)C`: in experiment [1], the EC50 stood at 0.046 µg/mL (≈ 0.0582 µM).

For `CC(=O)O[C@H]1C(=O)[C@@]2(CO)[C@H]([C@H](OC(=O)c3ccccc3)[C@]3(O)C[C@H](O)C(C)=C1C3(C)C)[C@]1(OC(C)=O)CO[C@@H]1C[C@@H]2O`, the result in experiment [2] was inactive. Further, in experiment [1], the Activity came out at 2.2 µg/mL.

As a reminder, the T/C is the ratio of treated to control. Consider `CC(=O)O[C@@]12CO[C@@H]1C[C@H](O)[C@@]1(C)C(=O)[C@H](O)C3=C(C)[C@@H](OC(=O)[C@H](O)[C@@H](NC(=O)c4ccccc4)c4ccccc4)C[C@@](O)([C@@H](OC(=O)c4ccccc4)[C@H]21)C3(C)C`, for which the T/C in experiment [3] was 135%. Moreover, in experiment [1], the EC50 is 0.027 µg/mL (≈ 0.0333 µM).

Compound `CC(=O)O[C@H]1C(=O)[C@@]2(C)[C@H]([C@H](OC(=O)c3ccccc3)[C@]3(O)C[C@H](OC(=O)[C@H](O)[C@@H](NC(=O)c4ccccc4)c4ccccc4)C(C)=C1C3(C)C)[C@]1(OC(C)=O)CO[C@@H]1C[C@@H]2O` [PACLITAXEL] displayed a T/C in experiment [4] of 152%. The EC50 in experiment [1] came to 0.0012 µg/mL (≈ 0.00141 µM).

With `C/C=C(\C)C(=O)N[C@@H](c1ccccc1)[C@@H](O)C(=O)O[C@H]1C[C@@]2(O)[C@@H](OC(=O)c3ccccc3)[C@@H]3[C@]4(OC(C)=O)CO[C@@H]4C[C@H](O)[C@@]3(C)C(=O)[C@H](OC(C)=O)C(=C1C)C2(C)C` [CEPHALOMANNINE], the T/C in experiment [4] was 162%. In addition, in experiment [1], the EC50 was 0.0038 µg/mL (≈ 0.00457 µM).

As for `CC(=O)O[C@@]12CO[C@@H]1C[C@@H](O)[C@@]1(C)C(=O)[C@H](O)C3=C(C)[C@@H](OC(=O)[C@H](O)[C@@H](NC(=O)c4ccccc4)c4ccccc4)C[C@@](O)([C@@H](OC(=O)c4ccccc4)[C@H]21)C3(C)C`, in experiment [1], the EC50 was found to be 0.034 µg/mL (≈ 0.0419 µM).

The compound `C/C=C(\C)C(=O)N[C@@H](c1ccccc1)[C@@H](O)C(=O)O[C@H]1C[C@@]2(O)[C@@H](OC(=O)c3ccccc3)[C@@H]3[C@]4(OC(C)=O)CO[C@@H]4C[C@H](O)[C@@]3(C)C(=O)[C@H](O)C(=C1C)C2(C)C` showed a T/C in experiment [3] of 130%. The EC50 in experiment [1] turned out to be 0.031 µg/mL (≈ 0.0392 µM).

For the origin of these results see ChEMBL document CHEMBL1151364, “19-Hydroxybaccatin III, 10-deacetylcephalomannine, and 10-deacetyltaxol: new antitumor taxanes from Taxus wallichiana” (1981).
